# In patent US20250236616A1, “IMMUNOMODULATING AZALIDES” (Zoetis Services LLC, priority 2021, published 2025):
# pIC50: −log10 of the molar value. Where two headings read alike, the source gives them in different places. Marks after values point to notes of the source that are not given here.
# Tests used:
# Format in all cases: cell-based
# [1] = tested on: BRD pathogens, M. haemolytica and P. multocida; assay: MIC screening panel, BRD pathogens (CLSI broth micro-dilution)
# Source text: Primary screening of the compounds of the invention included the evaluation of antibacterial activity of analogs through determination of microbial inhibition concentration (MIC) as per CLSI guidelines. The screening panel included the relevant BRD pathogens: 1) M. haemolytica (e.g., 12726, 46571 and 49023, all AHDRCC; and 33396 (ATCC)); and 2) P. multocida (e.g., 34135 and 46572 (both AHDRCC) and 43137 (ATCC)). In some instances, H. somni (A700025K) pathogens were also included in the screening panel. The AHDRCC strains originated from the Zoetis BRD/SRD surveillance program and refer to the Animal Health Development and Research Culture Collection. In addition, the screen assessed S. aureus (29213 ATCC) as a representative Gram-positive isolate, E.faecalis (19433 ATCC) as a commensal gram-positive gastrointestinal bacterium and E. coli (100, 3110 and 25922 (ATCC)) for the evaluation of efflux potential. The screening panel BRD pathogens were assessed in determining antibacterial activity of the Formula (1) compounds.
# All relevant BRD pathogens were initially screened at a top concentration of 64 μg/mL of a Formula (1) compound in an eleven-point dilution series. […] If an Example was purified further, the MICs moved […] essentially two dilutions across all strains tested in the screening panel.
# In-Vitro MIC Model Compounds were analyzed for antibacterial activity against a panel of animal health specific gram-positive and gram-negative clinical strains by diluting compounds in DMSO to an appropriate stock concentration to determine the Minimal Inhibitory Concentration (MIC) via a semi-automated broth micro-dilution method (CLSI reference method) with QC strains and anti-microbial agent(s). Specifically, bacteria were grown overnight on TSA w/5% sheep blood agar plates and diluted in saline buffer to a McFarland Standard 0.5, then further diluted in cation-ion adjusted Mueller Hinton Broth to a final concentration of approximately 5×10^5 CFU/mL. 100 μL of inoculated media was added to 96-well plate(s) with 3 μL of serially diluted compound in each row. Depending on strain (see CLSI reference method), bacteria were incubated 18-22 hours at 35-37° C. in ambient air, with 5% CO2 or anaerobically (up to 48 hours).
# TNF-α = assay: Whole bovine blood assay, LPS-induced TNF-α; details: fresh whole bovine blood, LPS stimulant, top drug concentration 250 μM
# Summary of the method: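 Fresh heparinized bovine whole blood was preincubated with compound 4 h at 37 °C, then stimulated with LPS (final 1 μg/mL) for 18 h at 37 °C. Plasma TNF-α was quantified by MSD U-Plex chemiluminescent immunoassay, normalized to total protein (BCA), and IC50 taken for LPS-induced TNF-α inhibition.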
# IL-6 = assay: Whole bovine blood assay, LPS-induced IL-6; details: fresh whole bovine blood, LPS stimulant, top drug concentration 250 μM
# [2] = Table B, at least one BRD pathogenic strain, top concentration 64 μg/mL, read-out: MIC flag (*) for BRD pathogenic strains
# [3] = Table B, at least one BRD pathogenic strain, top concentration 64 μg/mL
# [4] = Table C, at least one BRD pathogenic strain, top concentration 64 μg/mL
Compound,"MIC ([1]; BRD pathogens M. haemolytica and P. multocida, read-out: antibacterial / non-antibacterial (MIC class))",pIC50 (TNF-α; Bos taurus),pIC50 (IL-6; Bos taurus),"MIC [1, 2]","MIC flag (*) for BRD pathogenic strains [1, 3]",pIC50 (TNF-α),pIC50 (IL-6),"MIC flag (*) for BRD pathogenic strains [1, 4]"
"CC[C@H]1OC(=O)[C@H](C)[C@@H](O[C@H]2C[C@@](C)(OC)[C@](O)(CSc3ccccc3)[C@H](C)O2)[C@H](C)[C@@H](O[C@@H]2O[C@H](C)C[C@H](N(C)S(=O)(=O)c3ccc(Cl)cc3)[C@H]2O)[C@](C)(O)C[C@@H](C)CN[C@H](C)[C@@H](O)[C@]1(C)O [Example A3-1, 4-chloro-N-((2S,3R,4S,6R)-2-(((2R,3S,4R,5R,8R,10R,11R,12S,13S,14R)-2-ethyl-3,4, 10-trihydroxy-13-(((2R,4R,5S,6S)-5-hydroxy-4-methoxy-4,6-dimethyl-5-((phenylthio)methyl)tetrahydro-2H-pyran-2-yl)oxy)-3,5,8, 10, 12, 14-hexamethyl-15-oxo-1-oxa-6-azacyclopentadecan-11-yl)oxy)-3-hydroxy-6-methyltetrahydro-2H-pyran-4-yl)-N-methylbenzenesulfonamide]",> 64 µg/mL,4.57,4.51,,,,,
"CCCNC[C@]1(O)[C@H](C)O[C@@H](O[C@H]2[C@H](C)[C@@H](O[C@@H]3O[C@H](C)C[C@H](N(C)S(=O)(=O)c4ccc([N+](=O)[O-])cc4)[C@H]3O)[C@](C)(O)C[C@@H](C)CN[C@H](C)[C@@H](O)[C@](C)(O)[C@@H](CC)OC(=O)[C@@H]2C)C[C@@]1(C)OC [Example B-2, N-((2S,3R,4S,6R)-2-(((2R,3S,4R,5R,8R,10R,11R,12S,13S,14R)-2-ethyl-3,4,10-trihydroxy-13-(((2R,4R,5S,6S)-5-hydroxy-4-methoxy-4,6-dimethyl-5-((propylamino)methyl)tetrahydro-2H-pyran-2-yl)oxy)-3,5,8,10, 12,14-hexamethyl-15-oxo-1-oxa-6-azacyclopentadecan-11-yl)oxy)-3-hydroxy-6-methyltetrahydro-2H-pyran-4-yl)-N-methyl-4-nitrobenzenesulfonamide]",,4.43,4.34,≤ 64 µg/mL,,,,
"CC[C@H]1OC(=O)[C@H](C)[C@@H](O[C@H]2C[C@@](C)(OC)[C@](O)(CNC3CC3)[C@H](C)O2)[C@H](C)[C@@H](O[C@@H]2O[C@H](C)C[C@H](N(C)S(=O)(=O)c3ccc(Cl)cc3)[C@H]2O)[C@](C)(O)C[C@@H](C)CN[C@H](C)[C@@H](O)[C@]1(C)O [Example B-23, 4-chloro-N-((2S,3R,4S,6R)-2-(((2R,3S,4R,5R,8R,10R,11R,12S,13S, 14R)-13-(((2R,4R,5S,6S)-5-((cyclopropylamino)methyl)-5-hydroxy-4-methoxy-4,6-dimethyltetrahydro-2H-pyran-2-yl)oxy)-2-ethyl-3,4, 10-trihydroxy-3,5,8, 10, 12,14-hexamethyl-15-oxo-1-oxa-6-azacyclopentadecan-11-yl)oxy)-3-hydroxy-6-methyltetrahydro-2H-pyran-4-yl)-N-methylbenzenesulfonamide]",,5.52,4.89,≤ 64 µg/mL,,,,
"CC[C@H]1OC(=O)[C@H](C)[C@@H](O[C@H]2C[C@@](C)(OC)[C@](O)(CNCCc3ccc(C(F)(F)F)cc3)[C@H](C)O2)[C@H](C)[C@@H](O[C@@H]2O[C@H](C)C[C@H](N(C)S(=O)(=O)c3ccc(Cl)cc3)[C@H]2O)[C@](C)(O)C[C@@H](C)CN[C@H](C)[C@@H](O)[C@]1(C)O [Example B-31, 4-chloro-N-((2S,3R,4S,6R)-2-(((2R,3S,4R,5R,8R,10R,11R, 12S, 13S, 14R)-2-ethyl-3,4,10-trihydroxy-13-(((2R,4R,5S,6S)-5-hydroxy-4-methoxy-4,6-dimethyl-5-(((4-(trifluoromethyl)phenethyl)amino)methyl)tetrahydro-2H-pyran-2-yl)oxy)-3,5,8,10, 12,14-hexamethyl-15-oxo-1-oxa-6-azacyclopentadecan-11-yl)oxy)-3-hydroxy-6-methyltetrahydro-2H-pyran-4-yl)-N-methylbenzenesulfonamide]",,5.40,5.15,≤ 64 µg/mL,,,,
CC[C@H]1OC(=O)[C@H](C)[C@@H](O[C@H]2C[C@@](C)(OC)[C@](O)(CNCCc3ccc(C(F)(F)F)cc3)[C@H](C)O2)[C@H](C)[C@@H](O[C@@H]2O[C@H](C)C[C@H](N(C)S(=O)(=O)Nc3ccc(C(F)(F)F)cc3)[C@H]2O)[C@](C)(O)C[C@@H](C)CN[C@H](C)[C@@H](O)[C@]1(C)O [Example B-79],,,,,B79* (MIC ≤64 μg/mL for at least one BRD pathogenic strain),5.15,5.15,
"CCCNC[C@]1(O)[C@H](C)OC(O[C@H]2[C@H](C)[C@@H](O[C@@H]3O[C@H](C)C[C@H](N(C)S(=O)(=O)c4ccc(-c5cnco5)s4)[C@H]3Oc3ccc(OC)cc3)[C@](C)(O)C[C@@H](C)CN[C@H](C)[C@@H](O)[C@](C)(O)[C@@H](CC)OC(=O)[C@@H]2C)C[C@@]1(C)OC (stereo partly drawn) [Example B-120, N-[(2S,3R,4S,6R)-2-[[(2R,3S,4R,5R,8R,10R,11R,12S,13S, 14R)-2-ethyl-3,4,10-trihydroxy-13-[(4R,5S,6S)-5-hydroxy-4-methoxy-4,6-dimethyl-5-(propylaminomethyl)oxan-2-yl]oxy-3,5,8, 10, 12, 14-hexamethyl-15-oxo-1-oxa-6-azacyclopentadec-11-yl]oxy]-3-(4-methoxyphenoxy)-6-methyloxan-4-yl]-N-methyl-5-(1,3-oxazol-5-yl)thiophene-2-sulfonamide]",,,5.22,≤ 64 µg/mL,,,,
"(2R,3S,4R,5R,8R,10R,11R,12S, 13S, 14R)-2-ethyl-3,4, 10-trihydroxy-13-[(2R,4R,5S,6S)-5-hydroxy-4-methoxy-4,6-dimethyl-5-(piperidin-1-ylmethyl) oxan-2-yl]oxy-11-[(2R,3S,4R,6S)-3-hydroxy-4-[(4-methoxyphenyl) sulfamoyl-methylamino]-6-methyloxan-2-yl]oxy-3,5,8,10, 12,14-hexamethyl-15-oxo-1-oxa-6-azacyclopentadecane [Example C-27]",,,,,,4.14,4.14,C-27* (MIC ≤64 μg/mL for at least one BRD pathogenic strain)
"(2R,3S,4R,5R,8R,10R,11R, 12S, 13S, 14R)-2-ethyl-3,4, 10-trihydroxy-13-[(2R,4R,5S,6S)-5-hydroxy-4-methoxy-4,6-dimethyl-5-(piperidin-1-ylmethyl) oxan-2-yl]oxy-11-[(2R,3S,4R,6S)-3-hydroxy-6-methyl-4-[methyl-[(3-methylphenyl) sulfamoyl]-amino]oxan-2-yl]oxy-3,5,8, 10, 12,14-hexamethyl-15-oxo-1-oxa-6-azacyclopentadecane [Example C-26]",,,,,,4.80,4.60,C-26* (MIC ≤64 μg/mL for at least one BRD pathogenic strain)
"(2R,3S,4R,5R,8R,10R,11R, 12S, 13S, 14R)-11-[(2R,3S,4R,6S)-4-[[3-(dimethylamino)phenyl]sulfamoyl-methylamino]-3-hydroxy-6-methyloxan-2-yl]oxy-2-ethyl-3,4,10-trihydroxy-13-[(2R,4R,5S,6S)-5-hydroxy-4-methoxy-4,6-dimethyl-5-(piperidin-1-ylmethyl) oxan-2-yl]oxy-3,5,8,10, 12, 14-hexamethyl-15-oxo-1-oxa-6-azacyclopentadecane [Example C-25]",,,,,,4.43,,C-25* (MIC ≤64 μg/mL for at least one BRD pathogenic strain)
"N-((2S,3R,4S,6R)-2-(((2R,3S,4R,5R,8R,10R,11R,12S,13S,14R)-2-ethyl-3,4,10-trihydroxy-13-(((2R,4R,5S,6S)-5-hydroxy-4-methoxy-4,6-dimethyl-5-((propylamino)methyl)tetrahydro-2H-pyran-2-yl)oxy)-3,5,6,8,10,12,14-heptamethyl-15-oxo-1-oxa-6-azacyclopentadecan-11-yl)oxy)-3-(4-fluorophenoxy)-6-methyltetrahydro-2H-pyran-4-yl)-N, 1-dimethyl-1H-imidazole-2-sulfonamide [Example B-162]",,,,,B-162* (MIC ≤64 μg/mL for at least one BRD pathogenic strain),5.10,5.05,
